According to patent US8183388B2, “Androgen receptor modulator and uses thereof” (Eli Lilly and Company, priority 2009, dated 2012):

What was measured:
[1] = test system: castrated (GDX) male Sprague Dawley rats; assay: In vivo model of efficacy and selectivity (castrated rats, tissue wet weights); conditions: for mean normalized LA wet weight value / mean normalized bulbocavernous wet weight value / mean normalized prostate wet weight value: two week treatment, n=6, wet weight divided by body weight
Procedure: Eight week old male Sprague Dawley rats are castrated (gonadectomized or “GDX”) according to approved procedures and allowed to waste for eight weeks. Age-matched sham-operated […] are also prepared. Animals are housed in a temperature-controlled room (24° C.) with a reversed 12 hour light/dark cycle and water and food are available ad libitum.
Animals are randomized based on body weight prior to ascribing a test slot. Test compound in vehicle, or vehicle alone, is administered daily by subcutaneous injection to the castrated 16 week old rats (body weight about 380-400 g) using a conventional vehicle such as 5% DMSO/95% soybean oil. Sham operated rats treated with vehicle alone are used as a treatment positive controls, whereas the castrated rats treated only with vehicle are used as treatment negative control. A separate cohort of castrated animals are treated with testosterone as a comparator.
Test animals are dosed daily over a two or eight week timeframe with, for example, 0.1, 0.3, or 1.0 mg/kg per day of the compound of the present invention, or weekly with 10 mg/kg per week of testosterone (sesame oil vehicle) After the treatment period the animals are sacrificed and the wet weight of the levator ani (LA) muscle, the prostate and the bulbocavernous muscle from each animal is determined (after weighing, the bulbocavernous muscle may be flash frozen in liquid nitrogen for later use in measuring neuronal nitric oxide synthase mRNA, as described below). The wet weights are then normalized by dividing each individual wet weight by the body weight of the corresponding animal at the end of the study. The normalized values from the treatment animals are then compared to the normalized values from the castrated, vehicle-only control group or the sham group. As an indicator of tissue selective activity, the wet weight of the prostate from test animals may be similarly compared to the wet weight of the prostate from the control groups or the testosterone-treated comparator group.

[2] = biological target: T1, human androgen receptor (AR) (Homo sapiens, UniProt P10275); assay: C2C12 AR/ARE reporter assay; type: cell-based; conditions: mouse myoblast C2C12 cells, agonist mode, geometric mean of n=7; SD of about 0.08
T1 construct: expressed in transfected cells; host or cells: mouse myoblast C2C12 cells
T1 sequence (P10275 1-920): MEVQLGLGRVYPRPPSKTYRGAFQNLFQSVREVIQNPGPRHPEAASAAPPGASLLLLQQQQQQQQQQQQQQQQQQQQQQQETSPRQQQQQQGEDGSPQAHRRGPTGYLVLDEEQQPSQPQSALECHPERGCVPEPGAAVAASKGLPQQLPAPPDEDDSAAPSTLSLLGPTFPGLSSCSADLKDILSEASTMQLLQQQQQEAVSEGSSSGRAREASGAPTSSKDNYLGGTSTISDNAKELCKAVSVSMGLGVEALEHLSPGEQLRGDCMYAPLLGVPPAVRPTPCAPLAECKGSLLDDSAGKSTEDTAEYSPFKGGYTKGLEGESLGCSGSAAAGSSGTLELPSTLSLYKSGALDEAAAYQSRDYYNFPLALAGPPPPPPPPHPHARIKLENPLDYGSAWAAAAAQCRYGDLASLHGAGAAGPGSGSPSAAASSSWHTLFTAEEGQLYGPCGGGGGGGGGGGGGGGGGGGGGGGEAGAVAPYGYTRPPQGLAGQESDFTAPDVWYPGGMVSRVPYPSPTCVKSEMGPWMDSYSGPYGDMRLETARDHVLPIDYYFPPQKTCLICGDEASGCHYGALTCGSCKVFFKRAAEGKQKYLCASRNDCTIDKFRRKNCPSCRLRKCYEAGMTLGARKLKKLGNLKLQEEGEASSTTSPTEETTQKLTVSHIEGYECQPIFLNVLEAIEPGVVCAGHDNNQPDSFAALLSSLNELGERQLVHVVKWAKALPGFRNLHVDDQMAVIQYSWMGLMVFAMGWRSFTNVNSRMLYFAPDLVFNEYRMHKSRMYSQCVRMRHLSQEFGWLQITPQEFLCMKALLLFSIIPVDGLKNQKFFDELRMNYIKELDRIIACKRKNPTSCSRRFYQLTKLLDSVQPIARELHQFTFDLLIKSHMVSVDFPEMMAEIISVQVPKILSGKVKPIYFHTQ
Procedure: As an indicator of agonist activity in muscle tissue, the C2C12 AR/ARE reporter assay is performed. Briefly, mouse myoblast C2C12 cells are co-transfected using Fugene™ reagent. A reporter plasmid containing a GRE/ARE (glucocorticoid response element/androgen response element) and TK promoter upstream of the luciferase reporter cDNA, is transfected with a plasmid constitutively expressing human androgen receptor (AR) using viral CMV promoter. Cells are transfected in T150 cm^2 flasks in DMEM media with 4% charcoal stripped Fetal Bovine Serum (FBS). After a 5 hour incubation, transfected cells are trypsinized, plated in 96 well dishes in DMEM media containing 4% charcoal-stripped FBS, incubated for 2 h and then exposed to various concentrations of test compounds ranging from about 0.01 nM to 10 μM. […] Data is fit to a 4 parameter-fit logistics to determine EC50 values. The % efficacy is determined versus maximum stimulation obtained with 10 nM methyltrienolone.

CC(C)OC(=O)N[C@H]1Cc2c(n(C[C@H]3OCC[C@@H]3O)c3ccc(C#N)cc23)C1 [compound of Formula (I), [(S)-7-Cyano-4-((2R,3S)-3-hydroxytetrahydrofuran-2-ylmethyl)-1,2,3,4-tetrahydrocyclopenta[b]indol-2-yl]-carbamic acid isopropyl ester]
mean normalized LA wet weight value ([1]; 0.1 mg/kg per day s.c.): about 0.44 | mean normalized bulbocavernous wet weight value ([1]; 0.1 mg/kg per day s.c.): about 0.77 | mean normalized prostate wet weight value ([1]; 0.1 mg/kg per day s.c.): about 0.04 | mean normalized LA wet weight value ([1]; 0.3 mg/kg per day s.c.): about 0.57 | mean normalized bulbocavernous wet weight value ([1]; 0.3 mg/kg per day s.c.): about 1.29 | mean normalized prostate wet weight value ([1]; 0.3 mg/kg per day s.c.): about 0.14 | mean normalized LA wet weight value ([1]; 1.0 mg/kg per day s.c.): about 0.68 | mean normalized bulbocavernous wet weight value ([1]; 1.0 mg/kg per day s.c.): about 1.41 | mean normalized prostate wet weight value ([1]; 1.0 mg/kg per day s.c.): about 0.52 | levator ani and bulbocavernous muscle weights in comparison to the castrated control group ([1]; 0.1-1.0 mg/kg per day s.c., two weeks): dose dependent increase | effect on prostate weight when compared to Sham control and testosterone treated animals ([1]; two weeks, tissue selectivity): decreased effect | EC50 [2]: ~200 pM
